In patent US6355799B1, “Substituted benzene compounds, process for their preparation, and herbicidal and defoliant compositions containing them” (ISK Americas Incorporated, priority 1997, dated 2002):

Experiments:
Type in all cases: in vivo
[1] = test system: redroot pigweed (Amaranthus retroflexus, AMARE); experiment: Pre-emerge test, greenhouse herbicide activity screening; conditions: pre-emerge, 14 days after application, scale 0-100
In short: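 Visual ratings on a 0-100 scale (0 no damage, 100 all plants dead) were taken at 14 days after treatment. Rates of 15-1000 g ai/ha in acetone, 187 l/ha, were sprayed onto soil one day after planting (pre-emerge) or onto 2-3 leaf plants with 0.25% v/v surfactant (post-emerge).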

[2] = test system: barnyardgrass (Echinochloa crus-galli, ECHCG); experiment: as above; conditions: pre-emerge, 14 days after application, scale 0-100
Text: (§1) A standard greenhouse herbicide activity screening system was used to evaluate the herbicidal efficacy and crop safety of these test compounds. Seven broadleaf weed species including redroot pigweed (Amaranthus retroflexus, AMARE, velvetleaf (Abutilon theophrasti, ABUTH), sicklepod (Cassia obtusifolia, CASOB), ivyleaf morningglory (Ipomoea hederacea, IPOHE), lambsquarters (Chenopodium album, CHEAL), common ragweed (Ambrosia artemisizfolia L., AMBEL), and cocklebur (Xanthium strumarium, XANST) were used as test species. Four grass weed species including green foxtail (Setaria viridis, SETVI), barnyardgrass (Echinochloa crus-galli, ECHCG), johnsongrass (Sorghum halepense, SORHA), and large crabgrass (Digitaria sanguinalis, DIGSA) were also used. In addition, three crop species, field corn (Zea mays L., var. Dekalb 535, CORN), soybean (Glycine max L., var. Pella 86, SOY), and is upland rice (Oryza sp., var. Tebonnet, RICE) were included.
(§2) All plants were grown in 10 cm square plastic pots which were filled with a sandy loam soil mix. For pre-emerge tests, seeds were planted one day prior to application of the test compounds. For post-emerge tests, seeds were planted 8-21 days prior to the test to allow emergence and good foliage development prior to application of the test substances. At the time of the post-emerge application, plants of all species were usually at the 2-3 leaf stage of development.
(§3) All test compounds Were dissolved in acetone and applied to the test units in a volume of 187 l /ha. Test materials were applied at rates ranging from 15 g ai/ha to 1000 g ai/ha using a track sprayer equipped with a TJ8001E even flow flat fan spray nozzle. Plants were arranged on a shelf so that the top of the canopy (post-emerge) or top of the soil surface (pre-emerge) was 40-45 cm below the nozzle. Pressurized air was used to force the test solution through the nozzle as it was mechanically advanced (via electrically driven chain drive) over the top of all test plants/pots. This application simulates a typical commercial field herbicide application.
(§4) In the post-emerge test, a commercial non-ionic surfactant was also included (0.25% v/v) to enhance wetting of the leaf surfaces of target plants. Immediately after application, test units of the pre-emerge applications were watered at the soil surface to incorporate the test materials. Subsequently, these test units were bottom-watered. Post-emerge test units were always bottom-watered.
(§5) At 14 days after application of the test materials, phytotoxicity ratings were recorded. A rating scale of 0-100 was used as previously described in Research Methods in Weed Science, 2nd edition, B. Truelove, Ed., Southern Weed Science Society, Auburn University, Auburn, Ala. 1977. Briefly, “0” corresponds to no damage and “100” corresponds to complete death of all plants in the test unit. This scale was used both to determine efficacy against weed species and damage to crop species. Herbicide activity data for various compounds of this invention, which are shown by compound No. in Tables 1-8, are shown in Tables 11 and 12.

[3] = test system: green foxtail (Setaria viridis, SETVI); experiment: as above; conditions: pre-emerge, 14 days after application, scale 0-100
Text: as §1, §2, §3, §4, §5

[4] = test system: ivyleaf morningglory (Ipomoea hederacea, IPOHE); experiment: as above; conditions: pre-emerge, 14 days after application, scale 0-100
Text: as §1, §2, §3, §4, §5

[5] = test system: lambsquarters (Chenopodium album, CHEAL); experiment: as above; conditions: pre-emerge, 14 days after application, scale 0-100
Text: as §1, §2, §3, §4, §5

[6] = test system: large crabgrass (Digitaria sanguinalis, DIGSA); experiment: as above; conditions: pre-emerge, 14 days after application, scale 0-100
Text: as §1, §2, §3, §4, §5

[7] = test system: sicklepod (Cassia obtusifolia, CASOB); experiment: as above; conditions: pre-emerge, 14 days after application, scale 0-100
Text: as §1, §2, §3, §4, §5

[8] = test system: velvetleaf (Abutilon theophrasti, ABUTH); experiment: as above; conditions: pre-emerge, 14 days after application, scale 0-100
Text: as §1, §2, §3, §4, §5

[9] = test system: field corn (Zea mays L., var. Dekalb 535, CORN); experiment: Pre-emerge test, crop safety; conditions: pre-emerge, 14 days after application, scale 0-100
In short: (§6)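 Compounds in acetone were track-sprayed at 15-1000 g ai/ha (187 l/ha) on sandy loam pots: pre-emerge one day after seeding, post-emerge at 2-3 leaf stage with 0.25% v/v non-ionic surfactant. Phytotoxicity was rated 14 days later on a 0 (no damage) to 100 (complete death) scale.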

[10] = test system: upland rice (Oryza sp., var. Tebonnet, RICE); experiment: Pre-emerge test, crop safety; conditions: pre-emerge, 14 days after application, scale 0-100
In short: as §6

[11] = test system: barnyardgrass (Echinochloa crus-galli, ECHCG); experiment: Post-emerge test, greenhouse herbicide activity screening; conditions: post-emerge, 14 days after application, rating scale 0-100
Text: as §1, §2, §3, §4, §5

[12] = test system: green foxtail (Setaria viridis, SETVI); experiment: as above; conditions: post-emerge, 14 days after application, rating scale 0-100
Text: as §1, §2, §3, §4, §5

[13] = test system: ivyleaf morningglory (Ipomoea hederacea, IPOHE); experiment: as above; conditions: post-emerge, 14 days after application, rating scale 0-100
Text: as §1, §2, §3, §4, §5

[14] = test system: lambsquarters (Chenopodium album, CHEAL); experiment: as above; conditions: post-emerge, 14 days after application, rating scale 0-100
Text: as §1, §2, §3, §4, §5

[15] = test system: large crabgrass (Digitaria sanguinalis, DIGSA); experiment: as above; conditions: post-emerge, 14 days after application, rating scale 0-100
Text: as §1, §2, §3, §4, §5

[16] = test system: redroot pigweed (Amaranthus retroflexus, AMARE); experiment: as above; conditions: post-emerge, 14 days after application, rating scale 0-100
Text: as §1, §2, §3, §4, §5

[17] = test system: sicklepod (Cassia obtusifolia, CASOB); experiment: as above; conditions: post-emerge, 14 days after application, rating scale 0-100
Text: as §1, §2, §3, §4, §5

[18] = test system: velvetleaf (Abutilon theophrasti, ABUTH); experiment: as above; conditions: post-emerge, 14 days after application, rating scale 0-100
Text: as §1, §2, §3, §4, §5

[19] = test system: field corn (Zea mays L., var. Dekalb 535, CORN); experiment: Post-emerge test, crop safety; conditions: post-emerge, 14 days after application, rating scale 0-100
In short: (§7)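 Plants grown in 10 cm pots of sandy loam mix received acetone-dissolved compounds through a moving flat-fan nozzle. Doses ranged from 15 to 1000 g ai/ha. Pre-emerge pots were seeded one day earlier, post-emerge pots 8–21 days earlier. Fourteen days on, each pot was graded 0–100 for damage.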

[20] = test system: upland rice (Oryza sp., var. Tebonnet, RICE); experiment: Post-emerge test, crop safety; conditions: post-emerge, 14 days after application, rating scale 0-100
In short: as §7

| Structure (SMILES) | phytotoxicity rating AMARE ([1]; 63 g ai/ha) | phytotoxicity rating AMARE ([1]; 250 g ai/ha) | phytotoxicity rating ECHCG ([2]; 63 g ai/ha) | phytotoxicity rating ECHCG ([2]; 250 g ai/ha) | phytotoxicity rating SETVI ([3]; 63 g ai/ha) | phytotoxicity rating SETVI ([3]; 250 g ai/ha) | phytotoxicity rating IPOHE ([4]; 63 g ai/ha) | phytotoxicity rating IPOHE ([4]; 250 g ai/ha) | phytotoxicity rating CHEAL ([5]; 63 g ai/ha) | phytotoxicity rating CHEAL ([5]; 250 g ai/ha) | phytotoxicity rating DIGSA ([6]; 63 g ai/ha) | phytotoxicity rating DIGSA ([6]; 250 g ai/ha) | phytotoxicity rating CASOB ([7]; 63 g ai/ha) | phytotoxicity rating CASOB ([7]; 250 g ai/ha) | phytotoxicity rating ABUTH ([8]; 63 g ai/ha) | phytotoxicity rating ABUTH ([8]; 250 g ai/ha) | phytotoxicity rating CORN (crop damage) ([9]; 63 g ai/ha) | phytotoxicity rating CORN (crop damage) ([9]; 250 g ai/ha) | phytotoxicity rating RICE (crop damage) ([10]; 63 g ai/ha) | phytotoxicity rating RICE (crop damage) ([10]; 250 g ai/ha) | also measured |
| --- | --- | --- | --- | --- | --- | --- | --- | --- | --- | --- | --- | --- | --- | --- | --- | --- | --- | --- | --- | --- | --- |
| COc1c(Cl)cc(F)c(-n2c(=O)cc(C(F)(F)F)n(C)c2=O)c1NC(=O)CCc1cc(C)ccc1C [2-130] | 40 | 100 | 0 | 30 | 50 | 100 | 0 | 30 | 60 | 100 | 20 | 90 | 0 | 40 | 100 | 100 | 0 | 5 | 0 | 15 | ECHCG phytotoxicity rating ([11]; 63 g ai/ha): 50; ECHCG phytotoxicity rating ([11]; 250 g ai/ha): 60; SETVI phytotoxicity rating ([12]; 63 g ai/ha): 60; SETVI phytotoxicity rating ([12]; 250 g ai/ha): 70; IPOHE phytotoxicity rating ([13]; 63 g ai/ha): 100; IPOHE phytotoxicity rating ([13]; 250 g ai/ha): 100; CHEAL phytotoxicity rating ([14]; 63 g ai/ha): 100; CHEAL phytotoxicity rating ([14]; 250 g ai/ha): 100; DIGSA phytotoxicity rating ([15]; 63 g ai/ha): 30; DIGSA phytotoxicity rating ([15]; 250 g ai/ha): 50; AMARE phytotoxicity rating ([16]; 63 g ai/ha): 100; AMARE phytotoxicity rating ([16]; 250 g ai/ha): 100; CASOB phytotoxicity rating ([17]; 63 g ai/ha): 80; CASOB phytotoxicity rating ([17]; 250 g ai/ha): 70; ABUTH phytotoxicity rating ([18]; 63 g ai/ha): 100; ABUTH phytotoxicity rating ([18]; 250 g ai/ha): 100; CORN phytotoxicity rating (crop damage) ([19]; 63 g ai/ha): 10; CORN phytotoxicity rating (crop damage) ([19]; 250 g ai/ha): 30; RICE phytotoxicity rating (crop damage) ([20]; 63 g ai/ha): 20; RICE phytotoxicity rating (crop damage) ([20]; 250 g ai/ha): 25 |
| COc1c(Cl)cc(F)c(-n2c(=O)cc(C(F)(F)F)n(N)c2=O)c1NC(=O)COCc1ccccc1 [2-187] | 100 | 100 | 20 | 60 | 50 | 100 | 75 | 100 | 100 | 100 | 90 | 100 | 60 | 100 | 100 | 100 | 0 | 90 | 40 | 90 | ECHCG phytotoxicity rating ([11]; 63 g ai/ha): 20; ECHCG phytotoxicity rating ([11]; 250 g ai/ha): 40; SETVI phytotoxicity rating ([12]; 63 g ai/ha): 40; SETVI phytotoxicity rating ([12]; 250 g ai/ha): 60; IPOHE phytotoxicity rating ([13]; 63 g ai/ha): 100; IPOHE phytotoxicity rating ([13]; 250 g ai/ha): 100; CHEAL phytotoxicity rating ([14]; 63 g ai/ha): 100; CHEAL phytotoxicity rating ([14]; 250 g ai/ha): 100; DIGSA phytotoxicity rating ([15]; 63 g ai/ha): 10; DIGSA phytotoxicity rating ([15]; 250 g ai/ha): 40; AMARE phytotoxicity rating ([16]; 63 g ai/ha): 99; AMARE phytotoxicity rating ([16]; 250 g ai/ha): 100; CASOB phytotoxicity rating ([17]; 63 g ai/ha): 70; CASOB phytotoxicity rating ([17]; 250 g ai/ha): 100; ABUTH phytotoxicity rating ([18]; 63 g ai/ha): 100; ABUTH phytotoxicity rating ([18]; 250 g ai/ha): 100; CORN phytotoxicity rating (crop damage) ([19]; 63 g ai/ha): 15; CORN phytotoxicity rating (crop damage) ([19]; 250 g ai/ha): 75; RICE phytotoxicity rating (crop damage) ([20]; 63 g ai/ha): 50; RICE phytotoxicity rating (crop damage) ([20]; 250 g ai/ha): 90 |
